Measurements taken from PMC4686899, “Peptides derived from CXCL8 based on in silico analysis inhibit CXCL8 interactions with its receptor CXCR1” (Scientific Reports, 2015).
One block for each molecule: values may come before it. Ends that are not written are not given here.

Legend:
HMEC-1 = experiment: Cell viability assay (WST-1); type: cell-based, human; conditions: various concentrations of p_wt14, 24 and 48 h, WST-1, vs control
Experimental: (§1) Human micro-vascular endothelial cell-1 (HMEC-1, from American Type Culture Collection Manassas, USA) was maintained in MCDB 131 medium (Sigma, USA) with L-glutamine and fetal bovine serum (Sigma, USA) to a final concentration of 15%. The medium was supplemented with 500 units/ml penicillin (Biowest, USA), 500 μg/ml streptomycin (Biowest, USA), 10 ng/ml Epidermal Growth Factor (ProSpec, USA) and 1 µg/ml hydrocortisone (Sigma, USA). The THP-1 cells were maintained in the RPMI-1640 medium (Invitrogen, USA) with 10% FBS.
To evaluate if the peptide p_wt14 is toxic to the HMEC-1 under resting conditions, 2 × 10^4 cells were dispensed into each well of 96-well micro-plates and incubated for 2 hours for adhesion. After that, the medium containing peptide p_wt14 at various concentrations was added. After 24 and 48 hours of incubation, cells were washed with Hank’s balanced salt solution and the viabilities of HMEC-1were determined by WST-1 assay kit (Roche, USA). Each experiment was performed in quadruplicate and repeated at least three times.

[1] = test system: THP-1 cell adhesion to CXCL8-treated HMEC-1; type: cell-based, human; conditions: 25 ng/ml CXCL8, 18 h, no peptide, vs control
Experimental: Human micro-vascular endothelial cell-1 (HMEC-1, from American Type Culture Collection Manassas, USA) was maintained in MCDB 131 medium (Sigma, USA) with L-glutamine and fetal bovine serum (Sigma, USA) to a final concentration of 15%. The medium was supplemented with 500 units/ml penicillin (Biowest, USA), 500 μg/ml streptomycin (Biowest, USA), 10 ng/ml Epidermal Growth Factor (ProSpec, USA) and 1 µg/ml hydrocortisone (Sigma, USA). The THP-1 cells were maintained in the RPMI-1640 medium (Invitrogen, USA) with 10% FBS. For the assay of THP-1 cell adhesion to HMEC-1 monolayers, confluent HMEC-1 cell monolayers cultured on 24-well plates were pretreated with peptides for one hour and activated with 25 ng/ml LPS (Sigma, USA) or full length CXCL8 (ProSpec, USA) for 18 hours. THP-1 monocytes were suspended in RPMI 1640 and prelabeled with 5 mM Calcein-AM (Invitrogen, USA) for 30 minutes. Before the THP-1 cells were added to HMEC-1, the monolayers were washed twice to remove LPS or CXCL8. Fluorescence labeled monocytes (3 × 10^5 cells/well) were then added to HMEC-1 and incubated for 30 minutes at 37 °C. […] The images of adhered THP-1 cells were photographed (five images per well) under fluorescent microscopy and the number of attached monocytes was counted with the software AlphaImager 2200 (Alpha Innotech, USA).

[2] = test system: THP-1 transmigration across CXCL8-stimulated HMEC-1; experiment: CXCL8-induced monocyte transendothelial migration across HMEC-1 (Transwell); type: cell-based, human; conditions: 25 ng/ml CXCL8, 18 h, vs absence of CXCL8
Experimental: as §1
Migration of THP-1 cells across HMEC-1 was performed in a Transwell system (BD Bioscences, USA). Briefly, HMEC-1 cells cultured on transwell (polycarbonate membranes with 8 μm pore sizes) filters were pretreated with peptides for one hour and then stimulated with 25 ng/ml LPS or CXCL8 for 18 hours. THP-1 monocytes (2 × 10^5 cells/well) were added to the upper chamber of transwell inserts containing 50 μl RPMI 1640. LPS (25 ng/ml), CXCL8 peptide (p_wt14) (0.5 and 5 mM), or both combinations were added to the lower chamber to initiate transmigration. After four hours of incubation at 37 °C under 5% CO2, cells that had transmigrated to the lower chamber were harvested and counted using microscopy. All experiments were measured in at least three independent studies, and the data represent the number of transmigrated THP-1 cells.

[3] = target: CXCR1p receptor-derived peptide (Homo sapiens), P25024; experiment: SPR; conditions: modification not given
Chain of CXCR1p receptor-derived peptide (Homo sapiens), P25024 (P25024 9-29): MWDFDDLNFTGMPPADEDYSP

Molecule: QCIKTYSKPFHPKF [p_wt14]
- HMEC-1 cell viability (in words) (HMEC-1): no significant cell viability difference

Molecule: CXCL8: chemokine CXCL8 (also known as interleukin-8 or IL-8), full length
- effect of CXCL8 on monocyte adhesion to HMEC-1 (in words) [1]: significant increase in the number of adhered monocytes
- effect of CXCL8 on monocyte transmigration (in words) [2]: considerable increase in monocyte transmigration

- Kd [3]: 252 µM
Molecule: IKTYSKPFHPKFIK [CXCL8 peptide p_wt14 14-residue peptide, P10145]
